Literature values as cited in US5635503A, “Dihydropyridine npy antagonists: piperazine derivatives” (Bristol-Myers Squibb Company, priority 1995, dated 1997).

Legend:
[1] = target: T1, Y2 receptor (Rattus norvegicus, UniProt Q9ERC0); conditions: functional selectivity for the Y2 receptor
T1 sequence (Q9ERC0 1-381): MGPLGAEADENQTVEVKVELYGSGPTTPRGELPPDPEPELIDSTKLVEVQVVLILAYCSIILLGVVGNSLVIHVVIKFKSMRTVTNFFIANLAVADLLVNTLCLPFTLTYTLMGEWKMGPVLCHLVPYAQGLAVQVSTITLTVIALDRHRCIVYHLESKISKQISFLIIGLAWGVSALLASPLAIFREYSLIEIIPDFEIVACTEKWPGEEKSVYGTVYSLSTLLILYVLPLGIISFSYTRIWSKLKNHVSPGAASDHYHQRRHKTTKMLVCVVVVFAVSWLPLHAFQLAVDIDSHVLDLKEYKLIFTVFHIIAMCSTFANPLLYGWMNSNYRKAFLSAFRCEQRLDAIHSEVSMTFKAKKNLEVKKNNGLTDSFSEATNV

[2] = tested on: vasoconstrictive activity of the NPY1 agonist [Leu31, Pro34]NPY
[3] = tested on: rat femoral artery
[4] = tested on: NPY-related increases in diastolic blood pressure; conditions: anesthetized guinea pig model

Compound	effect on the NPY2 agonist NPY13-36 [1]	effect on vasoconstrictive activity of the NPY1 agonist [Leu31, Pro34]NPY [2]	functional antagonism [3]	antagonism of NPY-related increases in diastolic blood pressure [4]
N=C(N)N(CCCCCCNCc1ccc2ccccc2c1)CCCCCCN(CCCCCCNCc1ccc2ccccc2c1)C(=N)N [Example 6b]	antagonized the effect	had no effect	display functional antagonism	
CN(C)CC1CCC(CNC(=N)c2ccc(CC(NC(=O)C(Cc3ccccc3)NS(=O)(=O)c3ccc4ccccc4c3)C(=O)N3CCCC3)cc2)CC1 (stereo not shown) [SR 120819A]				antagonized
